According to paper PMC2680961, “Homologous desensitization of signalling by the alpha (α) isoform of the human thromboxane A2 receptor: A specific role for nitric oxide signalling” (Biochimica et Biophysica Acta, 2007):
Where a chain is given by its changes, count along the chain named.

Experiments:
TPβ^WT = biological target: T1, TPβ^WT (Homo sapiens, UniProt P21731); assay: [3H]SQ29,548 radioligand binding, Scatchard analysis, HEK.TPβ^WT
T1 construct: expressed in transfected cells
Description: Cells were harvested by centrifugation at 500×g at 4 °C for 5 min and washed three times with ice-cold Ca^2+/Mg^2+-free phosphate-buffered saline (PBS). TP radioligand binding assays were carried out at 30 °C for 30 min in 100 μl reactions in the presence of 0–40 nM [^3H] […] Protein determinations were carried out using the Bradford assay.
Radioligand binding and Scatchard analysis data were analysed using GraphPad Prisim V4.0 programme (GraphPad Software Inc., San Diego CA, USA). Statistical analyses were carried out using the unpaired Student's t test using the Statworks Analysis Package. p-values ≤ 0.01 indicated statistically significant differences.

TPα^T337A = biological target: T2, TPα^T337A (Homo sapiens, UniProt P21731, T337A); assay: Intracellular calcium mobilization, HEK.TPα^T337A cells; assay type: cell-based; settings: for Δ[Ca2+]i, U46619-induced: HEK.TPα^T337A
T2 construct: expressed in transfected cells
T2 sequence (P21731 1-343 T337A): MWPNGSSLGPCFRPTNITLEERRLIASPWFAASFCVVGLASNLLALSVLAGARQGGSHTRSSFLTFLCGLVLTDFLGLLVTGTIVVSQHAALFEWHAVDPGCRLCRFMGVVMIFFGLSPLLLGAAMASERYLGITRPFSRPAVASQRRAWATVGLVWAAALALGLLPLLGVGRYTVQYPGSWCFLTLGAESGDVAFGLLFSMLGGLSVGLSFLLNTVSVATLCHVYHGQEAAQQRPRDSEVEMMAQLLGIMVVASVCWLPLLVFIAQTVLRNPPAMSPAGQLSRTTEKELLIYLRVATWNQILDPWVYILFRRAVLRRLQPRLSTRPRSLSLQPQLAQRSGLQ
Description: Measurement of intracellular calcium mobilization ([Ca^2+]i) in FURA2/AM preloaded HEK 293 cell lines (2 × 10^6 cells/dish), each transiently co-transfected with pADVA (10 μg), and pCMV:Gαq (25 μg), was carried out as previously described. To investigate the effect of GRK2/βARK1 on TP-mediated [Ca^2+]i mobilization, HEK.TPα or HEK.TPβ cells (2 × 10^6 cells/dish) were co-transfected with pADVA (10 μg), pCMV:Gαq (25 μg) along with pRK5:βARK1^495–689 (25 μg), encoding a dominant negative form of GRK2/βARK1[39]. Approximately 48 h post-transfection, cells were harvested by scraping, washed twice in ice-cold PBS and resuspended in HBSSHB (modified Ca^2+/Mg^2+-free Hank's buffered salt solution, containing […], pH 7.67, 0.1% bovine serum albumin (BSA)) buffer at 10^7 cells/ml and incubated in the dark with 5 μM FURA2/AM for 45 min at 37 °C. […] For each measurement of [Ca^2+]i mobilization, aliquots of cells were diluted to 0.825 × 10^6 cells/ml in HBSSHB, 1 mM CaCl2 and FURA2 fluorescence was recorded (2 ml aliquots of cells) at 37^ °C with gentle stirring with a Perkin Elmer-Cetus LS50-B spectrofluorometer at excitation wavelengths of 340 nm and 380 nm and emission wavelength of 510 nm, respectively.
(§1) Cells were stimulated with the TP agonist U46619 (1 μM) and changes in [Ca^2+]i mobilization were monitored as a function of time. To assess agonist-mediated homologous desensitization, cells (0.825 × 10^6 cells/ml; 2 ml per assay) were stimulated with 1 μM U46619 (Primary stimulation) or, as a control, with the vehicle for 4 min; thereafter, cells were collected by centrifugation (900×g, 5 min); were washed twice in 2 ml HBSSHB, 1 mM CaCl2; and finally resuspended in 2 ml HBSSHB,1 mM CaCl2 and were left to recover over various time intervals (ranging from 0 to 60 min); thereafter, cells re-stimulated with 1 μM U46619 (Secondary stimulation) and changes in [Ca^2+]i mobilization were monitored as a function of time. […]

TPα^S239A = biological target: T3, TPα^S239A (Homo sapiens, UniProt P21731, S239A); assay: Intracellular calcium mobilization, HEK.TPα^S239A cells; assay type: cell-based
T3 construct: expressed in transfected cells
T3 sequence (P21731 1-343 S239A): T2 sequence (P21731 1-343 T337A) with S239A, A337T
Description: Measurement of intracellular calcium mobilization ([Ca^2+]i) in FURA2/AM preloaded HEK 293 cell lines (2 × 10^6 cells/dish), each transiently co-transfected with pADVA (10 μg), and pCMV:Gαq (25 μg), was carried out as previously described. To investigate the effect of GRK2/βARK1 on TP-mediated [Ca^2+]i mobilization, HEK.TPα or HEK.TPβ cells (2 × 10^6 cells/dish) were co-transfected with pADVA (10 μg), pCMV:Gαq (25 μg) along with pRK5:βARK1^495–689 (25 μg), encoding a dominant negative form of GRK2/βARK1[39]. Approximately 48 h post-transfection, cells were harvested by scraping, washed twice in ice-cold PBS and resuspended in HBSSHB (modified Ca^2+/Mg^2+-free Hank's buffered salt solution, containing […], pH 7.67, 0.1% bovine serum albumin (BSA)) buffer at 10^7 cells/ml and incubated in the dark with 5 μM FURA2/AM for 45 min at 37 °C. Cells were collected by centrifugation (900×g, 5 min), washed once in an equal volume of HBSSHB, and were finally resuspended in HBSSHB buffer at 10^7 cells/ml and kept at room temperature in the dark for 40 min. For each measurement of [Ca^2+]i mobilization, aliquots of cells were diluted to 0.825 × 10^6 cells/ml in HBSSHB, 1 mM CaCl2 and FURA2 fluorescence was recorded (2 ml aliquots of cells) at 37^ °C with gentle stirring with a Perkin Elmer-Cetus LS50-B spectrofluorometer at excitation wavelengths of 340 nm and 380 nm and emission wavelength of 510 nm, respectively.
as §1
The vehicle had no effect on U46619-mediated [Ca^2+]i mobilization. Calibration of the signal was performed in each sample by adding 0.2% Triton X-100 to obtain the maximal fluorescence ratio (Rmax) and then 1 mM EGTA to obtain the minimal fluorescence ratio (Rmin). […] Changes in [Ca^2+]i mobilization were determined by measuring peak rises in [Ca^2+]i mobilized (Δ[Ca^2+]i) and were calculated as mean changes in Δ[Ca^2+]i ± S.E.M. (nM).

T1 sequence (P21731 1-407 isoform P21731-2): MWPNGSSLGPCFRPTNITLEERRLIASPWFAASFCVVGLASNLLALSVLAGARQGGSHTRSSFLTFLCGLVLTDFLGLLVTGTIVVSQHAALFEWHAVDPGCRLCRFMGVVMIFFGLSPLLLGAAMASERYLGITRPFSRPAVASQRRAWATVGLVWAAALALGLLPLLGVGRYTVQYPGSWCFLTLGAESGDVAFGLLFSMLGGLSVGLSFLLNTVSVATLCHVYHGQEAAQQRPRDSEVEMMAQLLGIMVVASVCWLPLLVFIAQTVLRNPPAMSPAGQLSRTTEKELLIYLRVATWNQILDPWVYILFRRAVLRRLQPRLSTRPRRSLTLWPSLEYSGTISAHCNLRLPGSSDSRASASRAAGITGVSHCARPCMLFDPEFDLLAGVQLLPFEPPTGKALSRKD

| Bmax (pmol/mg protein ± S.E.M.) (TPβ^WT) | Δ[Ca2+]i, U46619-induced (TPα^T337A; primary 1 μM U46619 4 min) | Δ[Ca2+]i, U46619-induced (TPα^T337A; secondary 1 μM U46619 at 15 min) | secondary U46619 [Ca2+]i response relative to primary response (TPα^T337A; TPα^T337A) | Δ[Ca2+]i, U46619-induced (TPα^S239A; + GRK^DN, primary 1 μM U46619) | Δ[Ca2+]i, U46619-induced (TPα^S239A; + GRK^DN, secondary 1 μM U46619 at 15 min) | Δ[Ca2+]i, U46619-induced (TPα^S239A; − GRK^DN, primary 1 μM U46619) | Δ[Ca2+]i, U46619-induced (TPα^S239A; − GRK^DN, secondary 1 μM U46619 at 15 min) | SMILES |
| --- | --- | --- | --- | --- | --- | --- | --- | --- |
| 3.64 ± 0.03 pmol/mg protein |  |  |  |  |  |  |  | O=C(O)CCC/C=C\C[C@@H]1[C@H](CNNC(=O)Nc2ccccc2)[C@H]2CC[C@@H]1O2 [SQ29,548] |
|  | 200 ± 9.2 nM | 49 ± 5 nM | 25% | 180 ± 9 nM | 0 nM | 176 ± 10.3 nM | 0 nM | CCCCC[C@H](O)/C=C/[C@@H]1[C@@H](C/C=C\CCCC(=O)O)[C@H]2CO[C@@H]1C2 [U46619] |
